Results taken from paper PMC8232238 (Cells, 2021).
Several values for one entry are separate records, joined by “and”; a condition that tells them apart may be missing. Equal values may be shown once. Read-outs that look alike come from different tables or passages of the source.

What was measured:
[1] = UV/Vis absorption and fluorescence (photophysical properties) in DMSO; type: physicochemical; details: for λem: excitation at 340 nm; for Φf (fluorescence quantum yield): relative to quinine sulfate, average of two samples
Description: S1.6 UV/Vis and Fluorescence Data
UV/Vis analysis was performed on a Cary Eclipse 300 UV/Vis spectrophotometer and fluorescence measurements performed on a Cary Eclipse Fluorescence spectrophotometer. All analysis was performed in 10 mm quartz cuvettes using AR grade DMSO. Relative quantum yields were obtained by comparison to quinine sulfate (фf = 0.58 in 0.1 M H2SO4) with absorbance of samples adjusted so that the absorbance at 340 nm was similar to the reference.
Emission spectra were obtained by excitation at 340 nm. Quantum yield was obtained by use of the following equation and are reported as the average of two samples with error <5%; […]
Where фref is the literature quantum yield of the reference, η is the refractive index of the solvent (H2O = 1.333, DMSO = 1.479) and Is is the integrated fluorescence intensity of the sample with Iref being the same of the reference.
Table S1 – Photophysical properties of selected compounds in DMSO […]
†Average of two samples, ±1%

[2] = biological target: T1, HDAC6 (Homo sapiens, UniProt Q9UBN7); test: HDAC6 enzyme inhibition assay (single point and 10-dose IC50, Reaction Biology); type: biochemical; details: for IC50: average of two independent measurements; for HDAC6 average enzyme isoform activity (percentage of full enzyme activity): single point, inhibitor 0.01 μM, average of two measurements, ±2%
T1 construct: purchased Reaction Biology corporation (contract assay)
T1 sequence (Q9UBN7 1-1215): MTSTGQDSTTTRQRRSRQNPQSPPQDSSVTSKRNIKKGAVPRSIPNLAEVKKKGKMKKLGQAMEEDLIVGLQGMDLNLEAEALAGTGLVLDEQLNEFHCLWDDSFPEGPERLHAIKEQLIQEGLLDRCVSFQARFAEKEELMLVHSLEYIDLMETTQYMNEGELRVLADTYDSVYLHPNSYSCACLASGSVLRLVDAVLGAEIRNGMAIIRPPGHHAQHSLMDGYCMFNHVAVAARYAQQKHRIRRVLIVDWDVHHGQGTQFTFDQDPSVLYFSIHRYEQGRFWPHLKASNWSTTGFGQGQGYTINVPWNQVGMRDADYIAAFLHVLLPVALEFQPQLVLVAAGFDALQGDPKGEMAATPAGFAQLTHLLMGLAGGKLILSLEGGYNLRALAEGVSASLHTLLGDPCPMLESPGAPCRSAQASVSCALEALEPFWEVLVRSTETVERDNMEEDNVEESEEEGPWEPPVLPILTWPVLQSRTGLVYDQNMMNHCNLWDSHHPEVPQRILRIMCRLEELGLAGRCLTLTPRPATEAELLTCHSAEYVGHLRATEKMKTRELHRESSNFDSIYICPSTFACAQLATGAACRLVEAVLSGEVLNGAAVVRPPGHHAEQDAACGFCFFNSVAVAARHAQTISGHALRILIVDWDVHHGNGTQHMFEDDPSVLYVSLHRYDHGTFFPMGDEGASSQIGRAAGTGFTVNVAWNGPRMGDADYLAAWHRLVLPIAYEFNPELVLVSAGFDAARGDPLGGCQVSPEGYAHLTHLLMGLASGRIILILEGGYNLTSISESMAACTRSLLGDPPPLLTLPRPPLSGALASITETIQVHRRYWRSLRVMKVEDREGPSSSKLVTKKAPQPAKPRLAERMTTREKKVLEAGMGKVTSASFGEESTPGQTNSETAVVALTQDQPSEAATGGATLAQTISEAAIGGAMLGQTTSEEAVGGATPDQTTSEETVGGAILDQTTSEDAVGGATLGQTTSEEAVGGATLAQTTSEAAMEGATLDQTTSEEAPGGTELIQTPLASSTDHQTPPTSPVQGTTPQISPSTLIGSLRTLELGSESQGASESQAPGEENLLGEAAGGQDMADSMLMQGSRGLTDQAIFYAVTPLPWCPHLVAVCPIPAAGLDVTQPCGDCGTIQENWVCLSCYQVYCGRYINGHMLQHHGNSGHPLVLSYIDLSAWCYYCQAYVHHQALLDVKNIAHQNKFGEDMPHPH
Description: (§1) Against HDAC6, inhibition was determined using 0.01 µM of the inhibitor.
(§2) All IC50 measurements we performed by Reaction Biology corporation. Compounds were tested in
(§3) dilution starting at 1 uM. […]
(§4) (RHK(Ac)K(Ac)AMC). IC50 values were calculated using the GraphPad Prism 4 program based on a
(§5) sigmoidal dose-response equation. […]

[3] = biological target: T2, HDAC3 (Homo sapiens, UniProt O15379); test: HDAC3 enzyme inhibition assay (single point and 10-dose IC50, Reaction Biology); type: biochemical; details: for IC50: average of two independent measurements; for HDAC3 average enzyme isoform activity (percentage of full enzyme activity): single point, inhibitor 1.0 μM, average of two measurements, ±2%
T2 construct: purchased Reaction Biology corporation (contract assay)
Description: as §2, §3, §4, §5

[4] = biological target: T3, HDAC11 (Homo sapiens, UniProt Q96DB2); test: HDAC11 enzyme inhibition assay (single point and 10-dose IC50, Reaction Biology); type: biochemical; details: for IC50: average of two independent measurements; for Selectivity factor (SF) HDAC11 against HDAC6: selectivity for HDAC6 over HDAC11; for HDAC11 average enzyme isoform activity (percentage of full enzyme activity): single point, inhibitor 1.0 μM, average of two measurements, ±2%
T3 construct: purchased Reaction Biology corporation (contract assay)
T3 sequence (Q96DB2 1-347): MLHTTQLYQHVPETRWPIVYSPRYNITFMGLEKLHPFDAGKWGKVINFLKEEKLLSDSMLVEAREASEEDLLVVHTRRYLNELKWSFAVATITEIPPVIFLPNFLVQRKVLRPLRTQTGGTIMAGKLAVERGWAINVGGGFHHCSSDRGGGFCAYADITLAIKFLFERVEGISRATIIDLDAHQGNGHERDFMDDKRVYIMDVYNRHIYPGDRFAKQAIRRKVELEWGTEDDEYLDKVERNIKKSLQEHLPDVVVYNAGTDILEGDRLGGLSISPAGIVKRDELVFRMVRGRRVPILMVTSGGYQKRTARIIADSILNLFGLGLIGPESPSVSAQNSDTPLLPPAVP
Description: as §1
All IC50 measurements we performed by Reaction Biology corporation. Compounds were tested in […]
dilution starting at 1 uM.
Substrate for HDAC11: 50 uM Fluorogenic HDAC Class2a Substrate […]
(Trifluoroacetyl Lysine).
(RHK(Ac)K(Ac)AMC). IC50 values were calculated using the GraphPad Prism 4 program based on a sigmoidal dose-response equation. […]

[5] = biological target: T4, HDAC8 (Homo sapiens, UniProt Q9BY41); test: HDAC8 enzyme inhibition assay (single point and 10-dose IC50, Reaction Biology); type: biochemical; details: for IC50: average of two independent measurements; for Selectivity factor (SF) HDAC8 against HDAC6: selectivity for HDAC6 over HDAC8
T4 construct: purchased Reaction Biology corporation (contract assay)
T4 sequence (Q9BY41 1-377): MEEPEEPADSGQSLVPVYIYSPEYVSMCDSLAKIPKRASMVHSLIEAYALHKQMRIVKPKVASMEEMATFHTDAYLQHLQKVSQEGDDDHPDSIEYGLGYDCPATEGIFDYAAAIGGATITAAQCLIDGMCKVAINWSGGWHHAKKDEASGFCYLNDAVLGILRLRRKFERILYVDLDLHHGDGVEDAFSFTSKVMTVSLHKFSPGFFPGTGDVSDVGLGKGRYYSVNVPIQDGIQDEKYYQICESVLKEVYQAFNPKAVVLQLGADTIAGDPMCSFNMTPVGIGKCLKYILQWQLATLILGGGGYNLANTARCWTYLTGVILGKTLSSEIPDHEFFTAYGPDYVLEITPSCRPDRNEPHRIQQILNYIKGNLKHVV
Description: as §1, §2, §3, §4, §5

[6] = biological target: T5, HDAC1 (Homo sapiens, UniProt Q13547); test: HDAC1 enzyme inhibition assay (single point and 10-dose IC50, Reaction Biology); type: biochemical; details: for IC50: average of two independent measurements; for Selectivity factor (SF) = HDAC1 IC50/HDAC6 IC50: selectivity for HDAC6 over HDAC1; for HDAC1 average enzyme isoform activity (percentage of full enzyme activity): single point, inhibitor 1.0 μM, average of two measurements, ±2%
T5 construct: purchased Reaction Biology corporation (contract assay)
Description: as §2, §3, §4, §5

[7] = single point, inhibitor 1.0 μM, average of two measurements, ±2%

T2 sequence (O15379 whole entry, canonical isoform): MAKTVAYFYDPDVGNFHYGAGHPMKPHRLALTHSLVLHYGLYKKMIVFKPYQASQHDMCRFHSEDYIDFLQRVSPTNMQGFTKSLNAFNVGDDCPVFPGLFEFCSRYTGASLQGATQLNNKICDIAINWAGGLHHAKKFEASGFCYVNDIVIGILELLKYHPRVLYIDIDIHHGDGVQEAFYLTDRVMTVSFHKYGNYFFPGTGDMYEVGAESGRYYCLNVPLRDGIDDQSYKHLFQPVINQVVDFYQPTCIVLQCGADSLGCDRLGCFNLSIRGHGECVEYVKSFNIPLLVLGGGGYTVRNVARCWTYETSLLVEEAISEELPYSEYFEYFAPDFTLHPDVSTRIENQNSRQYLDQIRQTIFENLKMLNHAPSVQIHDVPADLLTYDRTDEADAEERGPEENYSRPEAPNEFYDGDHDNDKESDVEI
T2 sequence (Q9Y618 395-489 partner limits assumed): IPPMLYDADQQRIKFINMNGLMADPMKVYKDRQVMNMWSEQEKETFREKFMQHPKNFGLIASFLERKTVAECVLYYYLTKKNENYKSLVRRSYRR
T5 sequence (Q13547 whole entry, canonical isoform): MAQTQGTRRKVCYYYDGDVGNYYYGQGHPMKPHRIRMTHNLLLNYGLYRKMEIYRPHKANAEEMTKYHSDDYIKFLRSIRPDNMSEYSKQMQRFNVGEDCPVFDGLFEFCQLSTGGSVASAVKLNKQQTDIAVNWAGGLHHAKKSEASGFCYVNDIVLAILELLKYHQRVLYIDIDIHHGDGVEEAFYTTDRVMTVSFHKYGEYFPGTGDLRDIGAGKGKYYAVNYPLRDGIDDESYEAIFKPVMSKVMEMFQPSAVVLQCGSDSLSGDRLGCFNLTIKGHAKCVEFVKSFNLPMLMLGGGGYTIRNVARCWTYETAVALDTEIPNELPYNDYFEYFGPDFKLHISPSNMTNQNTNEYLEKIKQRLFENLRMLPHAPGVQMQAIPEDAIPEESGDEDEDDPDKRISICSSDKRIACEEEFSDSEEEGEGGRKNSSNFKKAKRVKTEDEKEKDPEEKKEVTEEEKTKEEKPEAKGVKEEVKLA

Structure (SMILES) | λabs (absorption maximum) [1] [nm] | λabs (secondary absorption maximum) [1] | λem [1] [nm] | Φf (fluorescence quantum yield) [1] | IC50 [2] [nM] | HDAC6 average enzyme isoform activity (percentage of full enzyme activity) [2] [%] | IC50 [3] [nM] | Selectivity factor (SF) HDAC3 against HDAC6 ([3]; selectivity for HDAC6 over HDAC3) | HDAC3 average enzyme isoform activity (percentage of full enzyme activity) [3] [%] | IC50 [4] [nM] | Selectivity factor (SF) HDAC11 against HDAC6 [4] | HDAC11 average enzyme isoform activity (percentage of full enzyme activity) [4] [%] | IC50 [5] [nM] | Selectivity factor (SF) HDAC8 against HDAC6 [5] | HDAC8 average enzyme isoform activity (percentage of full enzyme activity) [5, 7] [%] | IC50 [6] [nM] | Selectivity factor (SF) = HDAC1 IC50/HDAC6 IC50 [6] | HDAC1 average enzyme isoform activity (percentage of full enzyme activity) [6] [%] | HDAC8 average enzyme isoform activity (percentage of full enzyme activity) [5] [%]
COCCN1C(=O)c2cccc3cc(NC(=O)c4ccccc4)cc(c23)C1=O [Compound 6] | 344 | 385 nm | 435 | 0.02 |  |  |  |  |  |  |  |  |  |  |  |  |  |  | 
CCC(=O)Nc1cc2c3c(cccc3c1)C(=O)N(CCOC)C2=O [Compound 7] | 341 | 383 nm | 439 | 0.04 |  |  |  |  |  |  |  |  |  |  |  |  |  |  | 
COCCN1C(=O)c2cccc3cc(N4CCCC4=O)cc(c23)C1=O [Compound 8] | 343 | 383 nm | 441 | 0.02 |  |  |  |  |  |  |  |  |  |  |  |  |  |  | 
COCCN1C(=O)c2cccc3cc(NC(=O)OC(C)(C)C)cc(c23)C1=O [Compound 9] | 345 | 367 nm | 442 | 0.06 |  |  |  |  |  |  |  |  |  |  |  |  |  |  | 
O=C(CCCCCN1C(=O)c2cccc3cccc(c23)C1=O)NO [scriptaid, reference compound] |  |  |  |  |  |  |  |  |  |  |  |  |  |  |  |  |  |  | 60.3

Results, then the compound that gave them:

λabs (absorption maximum) [1] [nm] | λabs (secondary absorption maximum) [1] | λem [1] [nm] | Φf (fluorescence quantum yield) [1] | IC50 [2] [nM] | HDAC6 average enzyme isoform activity (percentage of full enzyme activity) [2] [%] | IC50 [3] [nM] | Selectivity factor (SF) HDAC3 against HDAC6 ([3]; selectivity for HDAC6 over HDAC3) | HDAC3 average enzyme isoform activity (percentage of full enzyme activity) [3] [%] | IC50 [4] [nM] | Selectivity factor (SF) HDAC11 against HDAC6 [4] | HDAC11 average enzyme isoform activity (percentage of full enzyme activity) [4] [%] | IC50 [5] [nM] | Selectivity factor (SF) HDAC8 against HDAC6 [5] | HDAC8 average enzyme isoform activity (percentage of full enzyme activity) [5, 7] [%] | IC50 [6] [nM] | Selectivity factor (SF) = HDAC1 IC50/HDAC6 IC50 [6] | HDAC1 average enzyme isoform activity (percentage of full enzyme activity) [6] [%] | HDAC8 average enzyme isoform activity (percentage of full enzyme activity) [5] [%] | Structure (SMILES)
343 | 386 nm and 374 nm | 437 | 0.05 | 0.58 ± 0.002 | 19.7 | 27 ± 3 | 47 | 17.2 | 240 ± 11 | 413 | 58.7 | 4330 ± 390 | 7466 | 93.4 | 87 ± 7 | 150 | 38.7 |  | COc1ccc(C(=O)Nc2cc3c4c(cccc4c2)C(=O)N(CCCCCC(=O)NO)C3=O)cc1 [KNH020]
341 | 383 nm | 435 | 0.04 | 0.97 ± 0.05 | 20.3 | 32 ± 1 |  | 20.1 | 2160 ± 140 | 2234 | 90.7 | 950 ± 50 | 981 | 50.4 | 37 ± 2 | 38 | 29.8 |  | CCC(=O)Nc1cc2c3c(cccc3c1)C(=O)N(CCCCCC(=O)NO)C2=O [KNH021]
